In patent US7732464B2, “Heterocyclic substituted 4-(aminomethyl)-piperidine benzamides as 5HT4-antagonists” (Janssen Pharmaceutica, N.V., priority 2003, dated 2010):
Counter-ions that a name gives are not always drawn.

Columns and labels:
[1] = Metabolic stability: incubation with liver microsomes and NADPH-generating system, LC-MS analysis; format: in vitro ADME; settings: compound 5 μM; microsomes 1 mg/ml; NADPH-generating system; 60 minutes at 37 degrees Celsius
Protocol: Sub-cellular tissue preparations were made according to Gorrod et al. (Xenobiotica 5: 453-462, 1975) by centrifugal separation after mechanical homogenization of tissue. Liver tissue was rinsed in ice-cold 0.1 M Tris-HCl (pH 7.4) buffer to wash excess blood. Tissue was then blotted dry, weighed and chopped coarsely using surgical scissors. The tissue pieces were homogenized in 3 volumes of ice-cold 0.1 M phosphate buffer (pH 7.4).
Tissue homogenates were centrifuged at 9000×g for 20 minutes at 4° C. The resulting supernatant was stored at −80° C. and is designated ‘S9’.
The S9 fraction can be further centrifuged at 100.000×g for 60 minutes (4° C.). The resulting supernatant was carefully aspirated, aliquoted and designated ‘cytosol’. The pellet was re-suspended in 0.1 M phosphate buffer (pH 7.4) in a final volume of 1 ml per 0.5 g original tissue weight and designated ‘microsomes’.
All sub-cellular fractions were aliquoted, immediately frozen in liquid nitrogen and stored at −80° C. until use.
For the samples to be tested, the incubation mixture contained PBS (0.1M), compound (5 μM), microsomes (1 mg/ml) and a NADPH-generating system (0.8 mM glucose-6-phosphate, 0.8 mM magnesium chloride and 0.8 Units of glucose-6-phosphate dehydrogenase). Control samples contained the same material but the microsomes were replaced by heat inactivated (10 minutes at 95 degrees Celsius) microsomes. Recovery of the compounds in the control samples was always 100%.
The mixtures were preincubated for 5 minutes at 37 degrees Celsius. The reaction was started at time point zero (t=0) by addition of 0.8 mM NADP and the samples were incubated for 60 minutes (t=60). The reaction was terminated by the addition of 2 volumes of DMSO. Then the samples were centrifuged for 10 minutes at 900×g and the supernatants were stored at room temperature for no longer as 24 hours before analysis. All incubations were performed in duplo. Analysis of the supernatants was performed with LC-MS analysis. Elution of the samples was performed on a Xterra MS C18 (50×4.6 mm, 5 μm, Waters, US). An Alliance 2790 (Supplier: Waters, US) HPLC system was used. Elution was with buffer A (25 mM ammoniumacetate (pH 5.2) in H2O/acetonitrile (95/5)), solvent B being acetonitrile and solvent C methanol at a flow rate of 2.4 ml/min. The gradient employed was increasing the organic phase concentration from 0% over 50% B and 50% C in 5 min up to 100% B in 1 minute in a linear fashion and organic phase concentration was kept stationary for an additional 1.5 minutes. Total injection volume of the samples was 25 μl.
A Quatro triple quadrupole mass spectrometer fitted with and ESP source was used as detector. The source and the desolvation temperature were set at 120 and 350° C. respectively and nitrogen was used as nebuliser and drying gas. Data were acquired in positive scan mode (single ion reaction). Cone voltage was set at 10 V and the dwell time was 1 second.
Metabolic stability was expressed as % metabolism of the compound after 60 minutes (equation given as Example) of incubation in the presence of active microsomes E(act))

h5-HT4b = target: T1, h5-HT4b (Homo sapiens, UniProt Q13639); experiment: 5HT4 antagonism: [3H]GR113808 binding to membranes of h5-HT4b-HEK 293 clone 9 cells; settings: displacement of [3H]GR113808 0.1 nM; h5-HT4b-HEK 293 membranes; 30 min at 25° C.; read-out: pIC50 (5HT4 antagonistic data) (converted)
T1 construct: expressed in transfected cells; host or cells: HEK 293 (clone 9), membrane preparation
Protocol: h5-HT4b-HEK 293 clone 9 cells were cultured in 150 mm Petri dishes and washed twice with cold PBS. The cells were then scraped from the plates and suspended in 50 mM Tris-HCl buffer, pH 7.4 and harvested by centrifugation at 23,500 rpm for 10 minutes. The pellet was resuspended in 5 mM Tris-HCl, pH 7.4 and homogenized with an Ultra Turrax homogenizer. The membranes were collected by centrifugation at 30,000 rpm for 20 min, resuspended in 50 mM Tris-HCl pH 7.4 and stored at −80° C. For the experiment, assay mixtures (0.5 ml) contained 50 μl of the tritiated ligand (5-HT4 antagonist [^3H]GR113808 0.1 nM) and 0.4 ml membrane preparation (15 μg protein/ml). 50 μl of 10% DMSO was added for total binding. 50 μl of 1 μM of (+)-trans-(1-butyl-3-hydroxy-4-piperidinyl)methyl 8-amino-7-chloro-2,3-dihydro-1,4-benzodioxin-5-carboxylate (a proprietary 5HT4 agonist of Janssen Pharmaceutica) was added for determination of non-specific binding.
The [^3H]GR113808 assay buffer was 50 mM HEPES-NaOH, pH 7.4. The mixtures were incubated for 30 min at 25° C. The incubation was terminated by filtration over a Unifilter 96 GF/B presoaked in 0.1% polyethylenimine, followed by six washing steps with 50 mM HEPES-NaOH, pH 7.4.

T1 sequence (Q13639 whole entry): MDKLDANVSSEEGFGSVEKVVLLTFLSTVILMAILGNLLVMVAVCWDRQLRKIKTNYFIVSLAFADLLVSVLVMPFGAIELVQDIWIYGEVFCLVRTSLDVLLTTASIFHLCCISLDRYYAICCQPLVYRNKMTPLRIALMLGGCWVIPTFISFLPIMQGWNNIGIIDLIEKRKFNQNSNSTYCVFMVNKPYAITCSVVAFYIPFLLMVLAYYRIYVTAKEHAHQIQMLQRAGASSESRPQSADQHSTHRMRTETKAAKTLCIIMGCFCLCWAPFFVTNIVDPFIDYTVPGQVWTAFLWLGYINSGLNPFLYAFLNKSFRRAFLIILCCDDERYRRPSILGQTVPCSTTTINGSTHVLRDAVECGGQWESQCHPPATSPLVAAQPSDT

melting point [°C] | % metabolised compound after 60 minutes [1] [%] | IC50 (h5-HT4b) [nM] | Structure (SMILES)
 |  | 1 | CO[C@@H]1CN(CCCCn2ccc(O)n2)CC[C@H]1CNC(=O)c1cc(Cl)c(Br)c2c1OCCCO2 (relative stereo) [Compound 30]
 | 5 | 2.4 | COc1ccc(C(=O)NC[C@@H]2CCN(CCCCn3ccc(O)n3)C[C@H]2O)c2c1OCCO2 [Compound 1]
 | 11 | 11.5 | COc1ccc(C(=O)NCC2CCN(CCCCn3ccc(O)n3)CC2OC)c2c1OCCO2 (centres unmarked) [Compound 4]
 | 39 | 1.26 | O=C(NCC1CCN(CCCCn2ccc(O)n2)CC1O)c1cc(Cl)cc2c1OCCCO2 (centres unmarked) [Compound 11]
 | 26 | 1.91 | Cc1cc2c(c(C(=O)NC[C@@H]3CCN(CCCCn4ccc(O)n4)C[C@H]3O)c1)OCCCO2 [Compound 15]
 | 55 | 33.9 | COC1CN(CCCCn2ccc(O)n2)CCC1CNC(=O)c1cc(C#N)cc2c1OCCCO2 (centres unmarked) [Compound 25]
 | 3 | 16.6 | Cc1ccc(C(=O)NC[C@@H]2CCN(CCCc3cc(O)no3)C[C@H]2O)c2c1OCCCO2 [Compound 26]
 | 12 | 10.2 | O=C(NC[C@@H]1CCN(CCCc2cc(O)no2)C[C@H]1O)c1cc(Cl)cc2c1OCCCO2 [Compound 27]
 | 53 | 1.17 | O=C(NCC1CCN(CCCCn2ccc(O)n2)CC1O)c1cc(Cl)c(Br)c2c1OCCCO2 (centres unmarked) [Compound 28]
 | 50 | 0.871 | O=C(NCC1CCN(CCCCn2ccc(O)n2)CC1O)c1cc(Cl)c(Cl)c2c1OCCCO2 (centres unmarked) [Compound 29]
 |  | 0.759 | COC1CN(CCCCn2ccc(O)n2)CCC1CNC(=O)c1cc(Cl)c(Cl)c2c1OCCCO2 (centres unmarked) [Compound 32]
 | 11 | 3.89 | N#Cc1cc2c(c(C(=O)NC[C@@H]3CCN(CCCCn4ccc(O)n4)C[C@H]3O)c1)OCCCO2 [Compound 34]
 |  | 83.2 | COc1ccc(C(=O)NC[C@@H]2CCN(CCCc3cc(O)no3)C[C@H]2O)c2c1OCCCO2 [Compound 35]
 | 10 | 14.1 | O=C(NC[C@@H]1CCN(CCCc2cc(O)no2)C[C@H]1O)c1cc(F)cc2c1OCCCO2 [Compound 36]
 | 1 | 17.8 | O=C(NC[C@@H]1CCN(CCCc2cc(O)no2)C[C@H]1O)c1cccc2c1OCCCO2 [Compound 37]

The remaining lines, values behind:

Structure (SMILES) | melting point [°C] | % metabolised compound after 60 minutes [1] [%] | IC50 (h5-HT4b) [nM]
O=C(NCC1CCN(CCCc2nnn[nH]2)CC1O)c1cc(Cl)cc2c1OCCCO2 (centres unmarked) (as salt: HCl) [Compound 7] | 212 |  | 
Cc1cc2c(c(C(=O)NC[C@@H]3CCN(CCCc4cc(O)no4)C[C@H]3O)c1)OCCCO2 (hydrate or solvate) [Compound 23] | > 93 |  | 
Cc1cc2c(c(C(=O)NCC3CCN(CCCN4CC(=O)NC4=O)CC3O)c1)OCCCO2 (centres unmarked) (hydrate or solvate) [Compound 24] | 135 |  | 
O=C1CN(CCCN2CC[C@@H](CNC(=O)c3cc(Cl)cc4c3OCCCO4)[C@H](O)C2)C(=O)N1 (relative stereo) [Compound 21] |  | 30.5 | 6.46
Cc1cc2c(c(C(=O)NC[C@@H]3CCN(CCCc4cc(O)no4)C[C@H]3O)c1)OCCO2 [Compound 2] |  | 0 | 8.71
N#Cc1cc2c(c(C(=O)NC[C@@H]3CCN(CCCc4cc(O)no4)C[C@H]3O)c1)OCCO2 [Compound 3] |  |  | 148
COc1ccc(C(=O)NC[C@@H]2CCN(CCCc3cc(O)no3)C[C@H]2O)c2c1OCCO2 [Compound 5] |  | 4 | 123
O=C(NC[C@@H]1CCN(CCCc2cc(O)no2)C[C@H]1O)c1cc(F)cc2c1OCCO2 [Compound 6] |  | 8 | 2750
O=C(NCC1CCN(CCCc2nnn[nH]2)CC1O)c1cc(Cl)cc2c1OCCCO2 (centres unmarked) [Compound 7] |  | 5 | 31.6
O=C(NC[C@@H]1CCN(CCCCc2nnn[nH]2)C[C@H]1O)c1cc(Cl)cc2c1OCCCO2 [Compound 8] |  | 2.5 | 7.24
Cc1ccc(C(=O)NC[C@@H]2CCN(CCCc3nnn[nH]3)C[C@H]2O)c2c1OCCCO2 [Compound 9] |  | 3 | 7.94
Cc1ccc(C(=O)NC[C@@H]2CCN(CCCCc3nnn[nH]3)C[C@H]2O)c2c1OCCCO2 [Compound 10] |  | 2 | 5.62
Cc1cc2c(c(C(=O)NC[C@@H]3CCN(CCCCc4nnn[nH]4)C[C@H]3O)c1)OCCCO2 [Compound 13] |  | 2 | 13.2
O=C(NC[C@@H]1CCN(CCCn2nn[nH]c2=O)C[C@H]1O)c1cc(Cl)cc2c1OCCCO2 [Compound 16] |  | 0.5 | 18.2
Cc1cc2c(c(C(=O)NC[C@@H]3CCN(CCc4nnn[nH]4)C[C@H]3O)c1)OCCCO2 [Compound 19] | > 125 | 1 | 46.8
O=C(NC[C@@H]1CCN(CCc2nnn[nH]2)C[C@H]1O)c1cc(Cl)cc2c1OCCCO2 [Compound 20] |  | 0 | 64.6
Cc1ccc(C(=O)NC[C@@H]2CCN(CCc3nnn[nH]3)C[C@H]2O)c2c1OCCCO2 [Compound 22] |  | 4.5 | 9.55
Cc1cc2c(c(C(=O)NC[C@@H]3CCN(CCCc4cc(O)no4)C[C@H]3O)c1)OCCCO2 [Compound 23] |  | 6 | 16.6
Cc1cc2c(c(C(=O)NCC3CCN(CCCN4CC(=O)NC4=O)CC3O)c1)OCCCO2 (centres unmarked) [Compound 24] |  | 16 | 7.08
Cc1cc2c(c(C(=O)NC[C@@H]3CCN(CCCN4C(=O)CNC4=O)C[C@H]3O)c1)OCCCO2 [Compound 31] |  | 12 | 1.48
Cc1cc2c(c(C(=O)NC[C@@H]3CCN(CCCCN4CCOCC4)C[C@H]3O)c1)OCCCO2 [Compound 38] |  | 18 | 1.05
COC1CN(CCCc2cc(O)no2)CCC1CNC(=O)c1cc(Cl)cc2c1OCCCO2 (centres unmarked) [Compound 39] |  | 17 | 22.9
COc1ccc(C(=O)NC[C@@H]2CCN(CCCCN3CCOCC3)C[C@H]2O)c2c1OCCCO2 [Compound 42] |  | 0 | 4.07
COc1ccc(C(=O)NCC2CCN(CCCc3cc(O)no3)CC2OC)c2c1OCCCO2 (centres unmarked) [Compound 44] |  | 3 | 372
COC1CN(CCCc2cc(O)no2)CCC1CNC(=O)c1cc(C)cc2c1OCCCO2 (centres unmarked) [Compound 45] |  | 6 | 132
